Data from patent US12209102B2, “Heterocyclic compounds and uses thereof” (Kumquat Biosciences Inc., priority 2022, dated 2025).
pIC50: −log10 of the molar value.

Experiments:
K-Ras G12V = target: T1, K-Ras G12V (Homo sapiens, UniProt P01116, G12V); experiment: HTRF resonance energy transfer assay, K-Ras G12V / SOS1 interaction; assay type: biochemical; conditions: HTRF assay of Example 5; read-out: IC50 against K-Ras G12V
T1 construct: made in house; host or cells: E. coli BL21 (DE3)
Summary of the method: (§1)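 Read-out: HTRF 665/620 nm ratio (excitation 337 nm) after roughly 10 min or longer incubation, used to derive IC50. Donor anti-GST-Eu on GST-K-Ras; acceptor anti-6His-XL665 on His-hSOS1. Duplicate dose series from 10 μM down to 0.01 μM.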

K-Ras G12S = target: T2, K-Ras G12S (Homo sapiens, UniProt P01116, G12S); experiment: HTRF resonance energy transfer assay, K-Ras G12S / SOS1 interaction; assay type: biochemical; conditions: HTRF assay of Example 5; read-out: IC50 against K-Ras G12S
T2 construct: made in house; host or cells: E. coli BL21 (DE3)
Summary of the method: as §1

SW620 cells = experiment: Ras cellular assay, growth of cells with K-Ras G12V mutation (CellTiter-Glo); assay type: cell-based; conditions: Homo sapiens, SW-620; cell growth, Example 9, G12V mutation; read-out: IC50 against SW620 cells
Summary of the method: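 SW620 (K-Ras G12V) cells, e.g. 800/well in RPMI-1640 with 10% heat-inactivated FBS on standard or ultra-low attachment plates, were dosed the day after plating with e.g. a 10-point 3-fold series. Viability by CellTiter-Glo luminescence about 6 days later; IC50 from four-parameter fit.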

K-Ras WT = target: T3, K-Ras WT (Homo sapiens, UniProt P01116); experiment: HTRF resonance energy transfer assay, K-Ras WT / SOS1 interaction; assay type: biochemical; conditions: HTRF assay of Example 5; read-out: IC50 against K-Ras WT
T3 construct: made in house; host or cells: E. coli BL21 (DE3)
Summary of the method: as §1

GP2D cells = experiment: Ras cellular assay, growth of cells with K-Ras G12D mutation (CellTiter-Glo); assay type: cell-based; conditions: cell growth, Example 9, G12D mutation, read-out: IC50 against GP2D cells
A549 cells = experiment: Ras cellular assay, growth of cells with K-Ras G12S mutation (CellTiter-Glo); assay type: cell-based; conditions: Homo sapiens, cell growth, Example 9, G12S mutation, read-out: IC50 against A549 cells
Summary of the method: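 A549 cells (K-Ras G12S) in RPMI-1640 with 10% heat-inactivated FBS, seeded e.g. 800 per well in standard or ultra-low-attachment 384-well plates, treated next day with a dilution series (e.g. 10-point, 3-fold). Viability by CellTiter-Glo luminescence about 6 days later; IC50 from four-parameter fit.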

K-Ras G12D = target: T4, K-Ras G12D (Homo sapiens, UniProt P01116, G12D); experiment: HTRF resonance energy transfer assay, K-Ras G12D / SOS1 interaction; assay type: biochemical; conditions: HTRF assay of Example 5; read-out: IC50 against K-Ras G12D
T4 construct: made in house; host or cells: E. coli BL21 (DE3)
Summary of the method: as §1

T2 sequence (P01116 1-188 isoform P01116-2 G12S): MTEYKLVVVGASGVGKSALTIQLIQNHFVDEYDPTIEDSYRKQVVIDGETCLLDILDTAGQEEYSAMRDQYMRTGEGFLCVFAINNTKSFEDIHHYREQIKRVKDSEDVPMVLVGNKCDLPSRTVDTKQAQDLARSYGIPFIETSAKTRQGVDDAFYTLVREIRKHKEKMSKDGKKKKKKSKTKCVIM
T4 sequence (P01116 1-188 isoform P01116-2 G12D): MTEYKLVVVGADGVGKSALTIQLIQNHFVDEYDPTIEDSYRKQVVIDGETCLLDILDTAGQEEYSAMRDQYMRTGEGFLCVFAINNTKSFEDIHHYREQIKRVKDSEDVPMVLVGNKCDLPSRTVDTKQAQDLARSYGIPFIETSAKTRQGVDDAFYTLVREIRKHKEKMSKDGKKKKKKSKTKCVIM
T1 sequence (P01116 1-188 isoform P01116-2 G12V): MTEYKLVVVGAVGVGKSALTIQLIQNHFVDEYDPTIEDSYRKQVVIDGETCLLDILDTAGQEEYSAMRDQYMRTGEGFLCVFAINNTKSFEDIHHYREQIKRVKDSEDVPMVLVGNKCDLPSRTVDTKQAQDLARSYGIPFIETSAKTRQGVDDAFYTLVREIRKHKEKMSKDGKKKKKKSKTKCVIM
T3 sequence (P01116 1-188 isoform P01116-2): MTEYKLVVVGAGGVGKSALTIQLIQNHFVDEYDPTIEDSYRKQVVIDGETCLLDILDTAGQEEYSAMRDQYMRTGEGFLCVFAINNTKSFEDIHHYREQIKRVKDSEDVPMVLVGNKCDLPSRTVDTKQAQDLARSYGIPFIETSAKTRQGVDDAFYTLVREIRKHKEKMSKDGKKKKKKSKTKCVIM

Compound	pIC50 (K-Ras G12V)	pIC50 (K-Ras G12S)	pIC50 (SW620 cells)	pIC50 (K-Ras WT)	pIC50 (GP2D cells)	pIC50 (A549 cells)	pIC50 (K-Ras G12D)
N#Cc1c(N)sc2c(F)ccc(-c3c(Cl)c4c5c(nc(OC[C@@]67CCCN6C[C@H](F)C7)nc5c3F)N(C35COC(CF)(C3)C5)CCO4)c12 [Compound 972, 2-amino-4-(8-chloro-10-fluoro-4-(1-(fluoromethyl)-2-oxabicyclo[2.1.1]hexan-4-yl)-2-(((2R,7aS)-2-fluorotetrahydro-1H-pyrrolizin-7a(5H)-yl)methoxy)-5,6-dihydro-4H-[1,4]oxazepino[5,6,7-de]quinazolin-9-yl)-7-fluorobenzo[b]thiophene-3-carbonitrile]	> 7.00	> 7.00	> 5.30	> 7.00	> 6.30	> 5.30	> 7.00
N#Cc1c(N)sc2c(F)ccc(-c3c(Cl)c4c5c(nc(OC[C@@]67CCCN6C[C@H](F)C7)nc5c3F)N(C3CCN(C(=O)[C@@H]5CCCO5)C3)CCO4)c12 (stereo partly drawn) [Compound 984, 2-amino-4-(8-chloro-10-fluoro-2-(((2R,7aS)-2-fluorotetrahydro-1H-pyrrolizin-7a(5H)-yl)methoxy)-4-(1-((S)-tetrahydrofuran-2-carbonyl)pyrrolidin-3-yl)-5,6-dihydro-4H-[1,4]oxazepino[5,6,7-de]quinazolin-9-yl)-7-fluorobenzo[b]thiophene-3-carbonitrile]	> 7.00	> 7.00	> 5.30	> 7.00	> 6.30	> 5.30	> 7.00
CN(C)CCN1CCOc2c(Cl)c(-c3ccc(F)c4sc(N)c(C#N)c34)c(F)c3nc(OC[C@@]45CCCN4C[C@H](F)C5)nc1c23 [Compound 994, 2-amino-4-(8-chloro-4-(2-(dimethylamino)ethyl)-10-fluoro-2-(((2R,7aS)-2-fluorotetrahydro-1H-pyrrolizin-7a(5H)-yl)methoxy)-5,6-dihydro-4H-[1,4]oxazepino[5,6,7-de]quinazolin-9-yl)-7-fluorobenzo[b]thiophene-3-carbonitrile]	> 7.00	> 7.00	> 5.30	> 7.00	> 6.30	> 5.30	> 7.00
N#Cc1c(N)sc2c(F)ccc(-c3c(Cl)c4c5c(nc(OC[C@@]67CCCN6C[C@H](F)C7)nc5c3F)N(C3CCCN(C(=O)C(F)F)C3)CCO4)c12 (stereo partly drawn) [Compound 998, 2-amino-4-(8-chloro-4-(1-(2,2-difluoroacetyl)piperidin-3-yl)-10-fluoro-2-(((2R,7aS)-2-fluorotetrahydro-1H-pyrrolizin-7a(5H)-yl)methoxy)-5,6-dihydro-4H-[1,4]oxazepino[5,6,7-de]quinazolin-9-yl)-7-fluorobenzo[b]thiophene-3-carbonitrile]	> 7.00	> 7.00	> 5.30	> 7.00	> 6.30	> 5.30	> 7.00
CC(C(F)F)N1CCOc2c(Cl)c(-c3ccc(F)c4sc(N)c(C#N)c34)c(F)c3nc(OC[C@@]45CCCN4C[C@H](F)C5)nc1c23 (stereo partly drawn) [Compound 1000, 2-amino-4-(8-chloro-4-(1,1-difluoropropan-2-yl)-10-fluoro-2-(((2R,7aS)-2-fluorotetrahydro-1H-pyrrolizin-7a(5H)-yl)methoxy)-5,6-dihydro-4H-[1,4]oxazepino[5,6,7-de]quinazolin-9-yl)-7-fluorobenzo[b]thiophene-3-carbonitrile]	> 7.00	> 7.00	> 5.30	> 7.00	> 6.30	> 5.30	> 7.00
N#Cc1c(N)sc2c(F)ccc(-c3c(Cl)c4c5c(nc(OC[C@@]67CCCN6C[C@H](F)C7)nc5c3F)N(CC(F)F)CC(CO)O4)c12 (stereo partly drawn) [Compound 1002, 2-amino-4-(8-chloro-4-(2,2-difluoroethyl)-10-fluoro-2-(((2R,7aS)-2-fluorotetrahydro-1H-pyrrolizin-7a(5H)-yl)methoxy)-6-(hydroxymethyl)-5,6-dihydro-4H-[1,4]oxazepino[5,6,7-de]quinazolin-9-yl)-7-fluorobenzo[b]thiophene-3-carbonitrile]	> 7.00	> 7.00	> 5.30	> 7.00	> 6.30	> 5.30	> 7.00
CN(C)CCCN1CCOc2c(Cl)c(-c3ccc(F)c4sc(N)c(C#N)c34)c(F)c3nc(OC[C@@]45CCCN4C[C@H](F)C5)nc1c23 [Compound 1020, 2-amino-4-(8-chloro-4-(3-(dimethylamino)propyl)-10-fluoro-2-(((2R,7aS)-2-fluorotetrahydro-1H-pyrrolizin-7a(5H)-yl)methoxy)-5,6-dihydro-4H-[1,4]oxazepino[5,6,7-de]quinazolin-9-yl)-7-fluorobenzo[b]thiophene-3-carbonitrile]	> 7.00	> 7.00	> 5.30	> 7.00	> 6.30	> 5.30	> 7.00
C[C@H]1CN(CC(F)F)c2nc(OC[C@@]34CCCN3C[C@H](F)C4)nc3c(F)c(-c4ccc(F)c5sc(N)c(C#N)c45)c(Cl)c(c23)O1 [Compound 1021, 2-amino-4-((6S)-8-chloro-4-(2,2-difluoroethyl)-10-fluoro-2-(((2R,7aS)-2-fluorotetrahydro-1H-pyrrolizin-7a(5H)-yl)methoxy)-6-methyl-5,6-dihydro-4H-[1,4]oxazepino[5,6,7-de]quinazolin-9-yl)-7-fluorobenzo[b]thiophene-3-carbonitrile]	> 7.00	> 7.00	> 5.30	> 7.00	> 6.30	> 5.30	> 7.00
N#Cc1c(N)sc2c(F)ccc(-c3c(Cl)c4c5c(nc(OC[C@@]67CCCN6C[C@H](F)C7)nc5c3F)N(C3CCN(C(=O)C[C@H]5CCCO5)C3)CCO4)c12 (stereo partly drawn) [Compound 1024, 2-amino-4-(8-chloro-10-fluoro-2-(((2R,7aS)-2-fluorotetrahydro-1H-pyrrolizin-7a(5H)-yl)methoxy)-4-(1-(2-((R)-tetrahydrofuran-2-yl)acetyl)pyrrolidin-3-yl)-5,6-dihydro-4H-[1,4]oxazepino[5,6,7-de]quinazolin-9-yl)-7-fluorobenzo[b]thiophene-3-carbonitrile]	> 7.00	> 7.00	> 5.30	> 7.00	> 6.30	> 5.30	> 7.00
CC(C)N1CCOc2c(Cl)c(-c3ccc(F)c4sc(N)c(C#N)c34)c(F)c3nc(OC[C@@]45CCCN4C[C@H](F)C5)nc1c23 [Compound 1025, 2-amino-4-(8-chloro-10-fluoro-2-(((2R,7aS)-2-fluorotetrahydro-1H-pyrrolizin-7a(5H)-yl)methoxy)-4-isopropyl-5,6-dihydro-4H-[1,4]oxazepino[5,6,7-de]quinazolin-9-yl)-7-fluorobenzo[b]thiophene-3-carbonitrile]	> 7.00	> 7.00	> 5.30	> 7.00	> 6.30	> 5.30	> 7.00
N#Cc1c(N)sc2c(F)ccc(-c3c(Cl)c4c5c(nc(OC[C@@]67CCCN6C[C@H](F)C7)nc5c3F)N(CC(F)F)[C@@H](CNC=O)CO4)c12 [Compound 1028, N-(((5S)-9-(2-amino-3-cyano-7-fluorobenzo[b]thiophen-4-yl)-8-chloro-4-(2,2-difluoroethyl)-10-fluoro-2-(((2R,7aS)-2-fluorotetrahydro-1H-pyrrolizin-7a(5H)-yl)methoxy)-5,6-dihydro-4H-[1,4]oxazepino[5,6,7-de]quinazolin-5-yl)methyl)formamide]	> 7.00	> 7.00	> 5.30	> 7.00	> 6.30	> 5.30	> 7.00
COC1(C(=O)N2CCC(N3CCOc4c(Cl)c(-c5ccc(F)c6sc(N)c(C#N)c56)c(F)c5nc(OC[C@@]67CCCN6C[C@H](F)C7)nc3c45)C2)CC1 (stereo partly drawn) [Compound 1038, 2-amino-4-(8-chloro-10-fluoro-2-(((2R,7aS)-2-fluorotetrahydro-1H-pyrrolizin-7a(5H)-yl)methoxy)-4-(1-(1-methoxycyclopropane-1-carbonyl)pyrrolidin-3-yl)-5,6-dihydro-4H-[1,4]oxazepino[5,6,7-de]quinazolin-9-yl)-7-fluorobenzo[b]thiophene-3-carbonitrile]	> 7.00	> 7.00	> 5.30	> 7.00	> 6.30	> 5.30	> 7.00
